Like-named read-outs stand apart in the source and are kept apart here. Marks after values point to notes of the source that are not given here. Where a SMILES comes first, the peptide text is derived from it.
What was measured:
[1] = Alloxan diabetes in rats, blood glucose and response to insulin; assay type: in vivo, Ratten
Procedure: Bekanntlich ist Alloxan-Diabetes durch Schädigung der ß-Zellen von Pankreas gekennzeichnet und wird von ausgeprägter Hyperglykämie infolge eines Insulinmangels und einer Aktivierung von Glukoneogenese begleitet.
Der Versuch wurde an 18 weißen Outbred-Ratten-Männchen mit einem durchschnittlichen Körpergewicht von 349 ± 19 g durchgeführt. Nach der Ermittlung von Glukosekonzentration im Blut wurden alle Tiere in 2 Gruppen aufgeteilt. Danach erhielten alle Tiere einmalig intravenös je 1 ml Alloxanlösung ("Spofa") in einer Dosis von 35 mg/kg. 15 Tage danach wurde den Tieren aus der Referenzgruppe je 0,3 ml der 0,9 %igen NaCl-Lösung einmal täglich intraperitoneal verabreicht. Die Ratten aus der Hauptgruppe wurden mit Tripeptid Lys-Glu-Trp-NH2 in einer Dosis von 3 µg (in 0,3 ml der 0,9 %igen NaCl-Lösung) pro Ratte innerhalb von 11 Tagen behandelt. Eine separate Gruppe bestand aus 7 gesunden Ratten mit einem ähnlichen Körpergewicht.
Danach wurde allen Tieren Insulin (0,3 ME) intravenös verabreicht und die Glukosekonzentration im Blut gemessen.

[2] = Hyperlipidaemia induced by polyoxyethylene sorbitan monooleate (polysorbate-80) in rats, serum lipids; assay type: in vivo, Ratten; settings: blood serum 24 h after polysorbate-80 300 mg/kg i.p.
Procedure: Die Versuche wurden an 51 Outbred-Ratten-Männchen der Linie Sprague-Dawley mit Körpergewicht von 220 - 240 g durchgeführt.
Die untersuchten Peptide wurden täglich in einer Tagesdosis von 20 und 200 µg/kg in den Magen im Laufe von 5 Tagen bis Hyperlipidämie-Ansatz verabreicht. Als Vergleichspräparat wurde ein Präparat gegen Hyperlipidämie aus der Gruppe von Fibric-Säure-Derivaten oder Fibraten - Bezafibrat (2-(b-parachlorobenzoyl-aminoethyl)phenoxy-2-methylpropinsäure) in der Dosis 50,0 mg/kg verwendet.
Die Hyperlipidämie wurde bei Ratten mittels intraperitonealer Einführung von Polyoxyethylen-sorbitan-monooleat (Polysorbat-80, Mischung von Polyäthylen-glykol-Esteren von Anhydrosorbit Monooleat) in einer Dosis von 300 mg/kg verabreicht. 24 Stunden später wurden die Ratten eingeschläfert. Danach wurden Triglyzeridspiegel, Gesamtcholesterin und Lipoproteid-Cholesterin mit hoher Dichte (HDL) im Blutserum der Tiere gemessen.
Infolge der Untersuchung der spezifischen pharmakologischen Aktivität wurde Folgendes festgestellt. Im Hintergrund der durch Polyoxyethylen-sorbitan-monooleat verursachten Hyperlipidämie üben Peptide eine hypolipidämische Wirkung aus. Das zeigt sich durch Senkung des Triglyzeridspiegels, des Gesamtcholesterinspiegels sowie durch Steigerung des HDL-Cholesterins im Blut (Tabelle 1) an. Tabelle 1

[3] = assay type: in vivo; settings: 500 µg oral twice daily for 30 days
Description: Die Untersuchung bezog sich auf Patienten mit einer verifizierten Diagnose eines metabolischen Syndroms. Die Diagnose wurde bei Erfüllung folgender Kriterien gestellt: arterielle Hypertension, gestörte Glukosetoleranz, Fettsucht, Dyslipidämie. Es wurden insgesamt 85 Patienten mit metabolischem Syndrom (50 Frauen, 35 Männer) untersucht. Das durchschnittliche Alter betrug bei den Männern 54,6 ± 12 Jahre, bei den Frauen 55,6 ± 13,0 Jahre.
Kriterien für die Einbeziehung der Patienten in die Forschung: • 1. Alter: Älter als 45 Jahre für Männer und Frauen. • 2. Vorhandensein von klinischen Merkmalen eines metabolischen Syndroms. • 3. Vorhandensein von verifizierter Pathologie des Magen-Darm-Kanals (Verstopfungen, Reizdarmsyndrom, Cholezystitis, Pankreatitis, Fettleber). • 4. Zustimmung des Patienten.
Die Kriterien für den Ausschluss der Kranken aus der Untersuchung waren das Vorhandensein von familiärer Dyslipidämie, akuter Pathologie des Magen-Darm-Kanals, Merkmalen der Helmintheninvasion und onkologischer und systematischer Pathologie.
Die Kombination der angewandten pathogenetischen Therapie unter Einsatz solcher Mittel wie ACE-Hemmer, Ca2^+-Kanal-Blocker, harntreibende Mittel, β-Blocker und deren Dosierung wurde aufgrund klinischer Indikationen festgelegt. Bei der Untersuchung wurden auch die mit Nitropräparaten sowie mit Statinen behandelten Kranken ausgeschlossen. Alle Kranken wurden einer hypocholesterinämisierenden Diät unterzogen, die eine Einnahme von Kleie einschließt.
Tripeptid Lys-Glu-Trp-NH2 wurde 47 Patienten oral in einer Dosis von 500 µg pro Gabe zweimal täglich im Laufe von 30 Tagen verabreicht. Die Unterbrechung zwischen den Behandlungen betrug 2 Monate.
Die Kranken wurden im Laufe von 12 Monaten beobachtet. Die Untersuchung umfasste 3 Phasen: Ursprungsphase (zum Zeitpunkt der Diagnoseüberprüfung), 6 Monate und ein Jahr später.
Folgende Parameter wurden bei allen Kranken analysiert: Geschlecht, Alter zum Zeitpunkt der Untersuchung, Krankheitsdauer, Dauer der arteriellen Hypertension, Fettsucht, Dyslipidämie. Die Untersuchung der Kranken umfasste eine Einschätzung der Risikofaktoren, wie z. B. Vererbung, Fettsucht, Zuckerkrankheit, koronare Herzkrankheit. Dabei wurde eine Sozialanamnese, d. h. Besonderheiten des Lebensstils, Ernährungsgewohnheiten, analysiert. Es wurden auch anthropometrische Messungen durchgeführt: Wuchs, Körpergewicht, Body-Maß- Index. Alle Kranken wurden einer planmäßigen Laboruntersuchung unterzogen und zwar: klinische Blutanalyse und Untersuchung von biochemischen Blutkennwerten. Es wurden Hämoglobingehalt, Erythrozytenmenge, Leukozyten-gehalt, Lymphozytengehalt ermittelt. Unter den biochemischen Serumkennwerten wurden Gesamteiweißgehalt, Albumine, Triglyzeridspiegel, Cholesterinspiegel, LDL, HDL, LDL/HDL-Verhältnis ermittelt. Die durchgeführten Instrumentenunter-suchungen umfassten Zuckerbelastungstest, Abdomen-Sonographie, Stuhluntersuchungen, Schilddrüsenfunktionsprüfung (Hormonstatus).

[4] = Alimentary atherogenic dyslipoproteinaemia (hypercholesterolaemic diet, 24 days) in rats, serum lipids; assay type: in vivo, Ratten; settings: 100 µg/kg i.p. daily
Description: Der Versuch wurde an 40 weißen Ratten-Männchen der Wistar-Linie mit einem Körpergewicht von 230 - 250 g durchgeführt. Die Tiere wurden in 4 Gruppen aufgeteilt. Gruppe 1: Referenzgruppe (Intakt), Gruppen 2 bis 4: Versuchsgruppen.
Die Versuchstiere wurden auf hypercholesterinämische (HCÄ) Diät gesetzt, um eine alimentäre atherogene Dyslipoproteinämie (DLP) zu modellieren. Die HCÄ- Diät umfasste mind. 7,5 % Cholesterin (CS), 45 % Fette und einen Überschuss an Vitamin D2 (500 000 IE). Gleichzeitig mit der Entwicklung von DLP erhielt die 3. Gruppe von Tieren Lys-Glu-Trp in einer Dosis von 100 µg/kg intraperitoneal täglich. Die 4. Gruppe von Tieren erhielt Lipanthyl 25 mg/kg intraperitoneal Lipanthyl 200M der Fa. Lab.Fournier S.A. (Frankreich) oder Fenofibrate, die zur Behandlung von Hyperlipoproteinämie verwendet werden, die sich mit keiner Diät mehr behandeln lässt. Der Versuch dauerte 24 Tage. […] Sie waren wohlgenährt und hatten glattes glänzendes Fell. Die Tiere aus der 2. Gruppe hatten zerzaustes Fell und zeigten Übererregbarkeit, was durch einen Überschuss an Vitamin D2 erklärt werden kann.
Nach dem Versuchsende wurde eine Dekapitation der Tiere vorgenommen. Danach wurden der Gesamt-Cholesterinspiegel (CS), Triglyzeridspiegel (TG), Cholesteringehalt der Lipoproteine hoher Dichte (CS HDL) im Blutserum der Tiere beurteilt und die Cholesterin-Konzentration der Lipoproteine niedriger Dichte (CS LDL) sowie der Cholesterin-HDL Quotient (LDL/HDL-Verhältnis) berechnet. Die genannten Kennziffern sind der Tabelle 2 zu entnehmen. Tabelle 2
Bei der Beurteilung wurden der Zustand und das Gewicht von Leber, Milz und Nebennieren berücksichtigt.

[5] = 3 µg per rat i.p. for 11 days, 30 min after insulin 0,3 ME i.v.
[6] = 20 µg/kg daily into the stomach for 5 days
[7] = 200 µg/kg daily into the stomach for 5 days

## NCCCC[C@H](N)C(=O)N[C@@H](CCC(=O)O)C(=O)N[C@@H](Cc1c[nH]c2ccccc12)C(N)=O [Lys-Glu-Trp-NH2] (H-Lys-Glu-Trp-NH2)
[1]; 3 µg per rat i.p. for 11 days
  Nebenwirkungen, Komplikationen, Arzneiabhängigkeit: keine Nebenwirkungen, Komplikationen und keine Arzneiabhängigkeit
[1]; 3 µg per rat i.p. for 11 days, starting 15 days after alloxan 35 mg/kg i.v., before insulin
  Glukosekonzentration im Blut (mg %) Ausgangsspiegel: 221,5±11,2 mg %
[1]; [5]
  Glukosekonzentration im Blut (mg %) 30 Minuten nach Insulineinführung: 123,6±8,3 mg %
  Senkung von Glukosespiegel im Vergleich zum Ausgangsspiegel (%): 44,2%
[1]; day 28 of the study, on average, 3 µg per rat i.p. for 11 days
  Senkung des Glukosespiegels im Blut: 34,8%
[1]; main group, 3 µg per rat i.p. for 11 days
  Letalität: Senkung der Letalität
[1]; versus alloxan diabetes + NaCl group
  Glukosespiegelsenkung nach der Insulineinführung gegenüber der Vergleichsgruppe: fast zweimal größere Glukosespiegelsenkung
[2]; [6]
  Gesamtcholesterin: 1,69±0,15 mMol/l
  HDL- Cholesterin: 1,05±0,02 mMol/l
  Triglyzeridspiegel: 0,76±0,14 mMol/l
[2]; [7]
  Gesamtcholesterin: 1,22±0,15 mMol/l
  HDL- Cholesterin: 1,09±0,02 mMol/l
  Triglyzeridspiegel: 0,88±0,12 mMol/l
[3]; 2 months between courses, 12 months observation, with basic therapy, Fig. 1
  Cholesterin-Konzentration: zur Cholesterin-Konzentrationssenkung beitrug
[3]; in complex therapy
  Konzentration der Lipoproteine mit hoher Dichte: Konzentrationssteigerung der Lipoproteine mit hoher Dichte
  drucksenkender Effekt: schnelleren und stabileren drucksenkenden Effekt
[3]; with basic therapy, Fig. 3
  LDL/HDL-Verhältnis: ausgeprägte Verminderung des LDL/HDL-Verhältnisses
[3]; 3rd examination after one year, Fig. 2
  Konzentration der Triglyzeride: maximale Konzentrationssenkung der Triglyzeride

## CC(C)(Oc1ccc(CCNC(=O)c2ccc(Cl)cc2)cc1)C(=O)O [Bezafibrat, 2-(b-parachlorobenzoyl-aminoethyl)phenoxy-2-methylpropinsäure]
[2]; 50,0 mg/kg (comparator)
  Gesamtcholesterin: 1,34±0,03 mMol/l
  HDL- Cholesterin: 0,98±0,05 mMol/l
  Triglyzeridspiegel: 0,55±0,06 mMol/l

## NCCCC[C@H](N)C(=O)N[C@@H](CCC(=O)O)C(=O)N[C@@H](Cc1c[nH]c2ccccc12)C(=O)O [Lys-Glu-Trp, L-Lysyl -L-Glutamyl-L-Tryptophan] (H-Lys-Glu-Trp-OH)
[4]; HCÄ diet 24 days
  Wirkung auf das relative Gewicht von Leber, Milz und Nebennieren: keine ungünstige Wirkung
[4]; HCÄ diet 24 days, blood serum
  Triglyzeridspiegel: 0,96±0,16 mMol/l
[4]; during the 24-day experiment
  Aussehen der Tiere: normgerechtes Aussehen
[4]; calculated, HCÄ diet 24 days
  CS LDL: 0,71±0,24 mMol/l
  LDL/HDL-Verhältnis: 2,21±0,58* *
[4]; total cholesterol, HCÄ diet 24 days, blood serum
  CS: 1,70±0,27* * mMol/l
[2]; [6]
  HDL- Cholesterin: 0,97±0,04 mMol/l
  Triglyzeridspiegel: 0,58±0,05 mMol/l
[2]; [7]
  Gesamtcholesterin: 2,10±0,17 mMol/l
  HDL- Cholesterin: 0,60±0,02 mMol/l
  Triglyzeridspiegel: 0,67±0,05 mMol/l

From EP2818477B1, “L-LYSYL-L-GLUTAMYL-L-TRYPTOPHAN FOR CORRECTING METABOLIC SYNDROME” (Obshestvo S Organichennoj Otvetstvennostju "CytoNIR", priority 2012, dated 2016)
